From ChEMBL document CHEMBL1133749, “Water-soluble, core-modified porphyrins as novel, longer-wavelength-absorbing sensitizers for photodynamic therapy” (J Med Chem, 2000) come the findings set out here.

For data set [1], the system named is Colon 26. Description: Lethal dose required for photodynamic therapy against COLO-26 cells in culture. Type of data set: toxicity, cell-based.
Data set [2] has as its system Mus musculus. In words: Tested in vivo for times to mm**3 tumor volume against BALB/c mice bearing COLO-26 tumors at a dose 10 mg/Kg. The format is functional.
Data set [3] deals with Mus musculus. In words: Tested in vivo for times to mm**3 tumor volume against BALB/c mice bearing COLO-26 tumors at a dose 3.25 mg/Kg. Type of data set: functional.
The test system of a further data set is Murine T-cell line. Description: Compound at >50 ug/mL was tested for photoactivity against murine T-cell line; No significant photoactivity. Type of data set: functional, cell-based. The settings on record: Mus musculus.
Data set [4] has as its system Colon 26. In words: Photodynamic therapy against COLO-26 cells in culture. The settings on record: Mus musculus, Colon 26, light or radiation study; read-out: LD50 (the source's name). The format is cell-based.

Consider `O=S(=O)([O-])c1ccc(-c2c3nc(c(-c4ccc(S(=O)(=O)[O-])cc4)c4ccc(s4)c(-c4ccc(S(=O)(=O)[O-])cc4)c4nc(c(-c5ccc(S(=O)(=O)[O-])cc5)c5ccc2s5)C=C4)C=C3)cc1.[Na+].[Na+].[Na+].[Na+]`, for which, in the data set with Colon 26 [1] (Mus musculus, Colon 26, light or radiation study, read-out: LD50 (the source's name)), the CC50 is < 25 µg/mL. Also, the LD90 in the data set on Colon 26 [1] (mouse) was > 50 µg/mL. Also, the values for the Time in the data set on Mus musculus [2] and in the data set on Mus musculus [3] were 276 h and 198 h, respectively. Besides, the NS entry in the data set on Murine T-cell line was “No significant photoactivity”.
Turning to `O=S(=O)([O-])c1ccc(-c2c3nc(c(-c4ccc(S(=O)(=O)[O-])cc4)c4ccc([nH]4)c(-c4ccc(S(=O)(=O)[O-])cc4)c4ccc([nH]4)c(-c4ccc(S(=O)(=O)[O-])cc4)c4nc2C=C4)C=C3)cc1.[Na+].[Na+].[Na+].[Na+]`, in the data set with Colon 26 [4], the CC50 was > 100 µg/mL. Further, in the data set on Murine T-cell line, the NS entry is “No significant photoactivity”.
